# Experimental data reported in patent US11267825B2 (AICURIS GMBH & CO. KG, priority 2017, dated 2022).
# Columns and labels:
# HBV core protein = HBV core protein (UniProt P03146); format: biochemical; conditions: read-out: Assembly Activity (IC50); BODIPY-FL labelled core protein, assembly started with NaCl, read after 6 min
# Procedure, shortened: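 Fluorescence-quenching assembly assay using E. coli-expressed core protein 1–149 plus Cys150, labelled with BODIPY-FL maleimide, at 1.0–2.0 μM in 50 mM HEPES pH 7.5, 0.5% DMSO. Assembly started with NaCl to […]; fluorescence (ex 477/em 525 nm) read after 6 min. EC50 by non-linear regression, 8-point 0.5-log dilutions.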
# HBV = test: Determination of HBV DNA from the supernatants of HepAD38 cells (anti-HBV activity); format: cell-based, hepatitis B virus; conditions: Hepatitis B virus, 144 h; HBV DNA in HepAD38 supernatant at day 6; read-out: Cell Activity (EC50)
# Procedure, shortened: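 HepAD38 cells (60,000/well) were treated with half-log compound dilutions in tetracycline-free medium to induce HBV production. On day 6, HBV DNA was purified from filtered supernatant and quantified by real-time PCR against plasmid standards. EC50 values came from non-linear regression of relative copy numbers, typically from three experiments in triplicate.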
# Chain of HBV core protein (P03146 whole entry, looked up): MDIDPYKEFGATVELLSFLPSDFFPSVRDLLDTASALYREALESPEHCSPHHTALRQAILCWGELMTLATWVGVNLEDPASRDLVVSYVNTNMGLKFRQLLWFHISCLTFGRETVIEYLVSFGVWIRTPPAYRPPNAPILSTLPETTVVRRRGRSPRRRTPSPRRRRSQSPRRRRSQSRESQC
structure (smiles),measurement,setting,value
"CCc1cccc2[nH]c(C(=O)N3CCc4nc(NC5(CO)CCC5)sc4C3)cc12 [Example 300, (1-{[5-(4-ethyl-1H-indole-2-carbonyl)-4H,5H,6H,7H-[1,3]thiazolo[5,4-c]pyridin-2-yl]amino}cyclobutyl)methanol]",IC50,HBV core protein,< 5 µM
same,EC50,HBV,< 1 µM
"O=C(c1cc2ccc(Cl)cc2[nH]1)N1CCc2nc(N[C@H]3CC[C@@H](O)CC3)sc2C1 [Example 301, (1s,4s)-4-{[5-(6-chloro-1H-indole-2-carbonyl)-4H,5H,6H,7H-[1,3]thiazolo[5,4-c]pyridin-2-yl]amino}cyclohexan-1-ol]",IC50,HBV core protein,< 5 µM
same,EC50,HBV,< 1 µM
"O=C(c1cc2c(Cl)cccc2[nH]1)N1CCc2nc(N[C@H]3CC[C@@H](O)CC3)sc2C1 [Example 302, (1s,4s)-4-{[5-(4-chloro-1H-indole-2-carbonyl)-4H,5H,6H,7H-[1,3]thiazolo[5,4-c]pyridin-2-yl]amino}cyclohexan-1-ol]",IC50,HBV core protein,< 5 µM
same,EC50,HBV,< 1 µM
"Cc1cc(F)cc2[nH]c(C(=O)N3CCc4nc(N[C@H]5CC[C@@H](O)CC5)sc4C3)cc12 [Example 303, (1s,4s)-4-{[5-(6-fluoro-4-methyl-1H-indole-2-carbonyl)-4H,5H,6H,7H-[1,3]thiazolo[5,4-c]pyridin-2-yl]amino}cyclohexan-1-ol]",IC50,HBV core protein,< 5 µM
same,EC50,HBV,< 1 µM
"COC1CCC(Nc2nc3c(s2)CN(C(=O)c2cc4ccccc4[nH]2)CC3)CC1 (stereo not shown) [Example 310, 5-(1H-indole-2-carbonyl)-N-(4-methoxycyclohexyl)-4H,5H,6H,7H-[1,3]thiazolo[5,4-c]pyridin-2-amine]",IC50,HBV core protein,5 to 10 µM
same,EC50,HBV,< 1 µM
"O=C(c1cc2c(Cl)cccc2[nH]1)N1CCc2nc(NCC3(O)CCC3)sc2C1 [Example 311, 1-({[5-(4-chloro-1H-indole-2-carbonyl)-4H,5H,6H,7H-[1,3]thiazolo[5,4-c]pyridin-2-yl]amino}methyl)cyclobutan-1-ol]",IC50,HBV core protein,< 5 µM
same,EC50,HBV,< 1 µM
"Cc1cc(F)cc2[nH]c(C(=O)N3CCc4nc(NCC5(O)CCC5)sc4C3)cc12 [Example 312, 1-({[5-(6-fluoro-4-methyl-1H-indole-2-carbonyl)-4H,5H,6H,7H-[1,3]thiazolo[5,4-c]pyridin-2-yl]amino}methyl)cyclobutan-1-ol]",IC50,HBV core protein,< 5 µM
same,EC50,HBV,< 1 µM
"O=C(c1cc2c(Cl)cc(F)cc2[nH]1)N1CCc2nc(NCC3(O)CCC3)sc2C1 [Example 313, 1-({[5-(4-chloro-6-fluoro-1H-indole-2-carbonyl)-4H,5H,6H,7H-[1,3]thiazolo[5,4-c]pyridin-2-yl]amino}methyl)cyclobutan-1-ol]",IC50,HBV core protein,< 5 µM
same,EC50,HBV,< 1 µM
"O=C(c1cc2c(F)cc(F)cc2[nH]1)N1CCc2nc(NCC3(O)CCC3)sc2C1 [Example 314, 1-({[5-(4,6-difluoro-1H-indole-2-carbonyl)-4H,5H,6H,7H-[1,3]thiazolo[5,4-c]pyridin-2-yl]amino}methyl)cyclobutan-1-ol]",IC50,HBV core protein,< 5 µM
same,EC50,HBV,< 1 µM
"O=C(Nc1nc2c(s1)CN(C(=O)c1cc3ccccc3[nH]1)CC2)C1CCCCO1 (stereo not shown) [Example 315, N-[5-(1H-indole-2-carbonyl)-4H,5H,6H,7H-[1,3]thiazolo[5,4-c]pyridin-2-yl]oxane-2-carboxamide]",IC50,HBV core protein,5 to 10 µM
same,EC50,HBV,< 1 µM
"O=C(Nc1nc2c(s1)CN(C(=O)c1cc3c(Cl)cccc3[nH]1)CC2)C1CCOCC1 [Example 316, N-[5-(4-chloro-1H-indole-2-carbonyl)-4H,5H,6H,7H-[1,3]thiazolo[5,4-c]pyridin-2-yl]oxane-4-carboxamide]",IC50,HBV core protein,< 5 µM
same,EC50,HBV,< 1 µM
"O=C(Nc1nc2c(s1)CN(C(=O)c1cc3ccc(Cl)cc3[nH]1)CC2)C1CCOCC1 [Example 318, N-[5-(6-chloro-1H-indole-2-carbonyl)-4H,5H,6H,7H-[1,3]thiazolo[5,4-c]pyridin-2-yl]oxane-4-carboxamide]",IC50,HBV core protein,< 5 µM
same,EC50,HBV,< 1 µM
"O=C(Nc1nc2c(s1)CN(C(=O)c1cc3c(F)cc(F)cc3[nH]1)CC2)C1CCOCC1 [Example 319, N-[5-(4,6-difluoro-1H-indole-2-carbonyl)-4H,5H,6H,7H-[1,3]thiazolo[5,4-c]pyridin-2-yl]oxane-4-carboxamide]",IC50,HBV core protein,< 5 µM
same,EC50,HBV,< 1 µM
"O=C(Nc1nc2c(s1)CN(C(=O)c1cc3c(Cl)cc(F)cc3[nH]1)CC2)C1CCOCC1 [Example 320, N-[5-(4-chloro-6-fluoro-1H-indole-2-carbonyl)-4H,5H,6H,7H-[1,3]thiazolo[5,4-c]pyridin-2-yl]oxane-4-carboxamide]",IC50,HBV core protein,5 to 10 µM
same,EC50,HBV,< 1 µM
"Cc1cc(F)cc2[nH]c(C(=O)N3CCc4nc(NC(=O)C5CCOCC5)sc4C3)cc12 [Example 321, N-[5-(6-fluoro-4-methyl-1H-indole-2-carbonyl)-4H,5H,6H,7H-[1,3]thiazolo[5,4-c]pyridin-2-yl]oxane-4-carboxamide]",IC50,HBV core protein,< 5 µM
same,EC50,HBV,< 1 µM
"O=C(c1cc2c(C(F)F)ccc(F)c2[nH]1)N1CCc2nc(NCC3CCOC3)sc2C1 (stereo not shown) [Example 322, 5-[4-(difluoromethyl)-7-fluoro-1H-indole-2-carbonyl]-N-[(oxolan-3-yl)methyl]-4H,5H,6H,7H-[1,3]thiazolo[5,4-c]pyridin-2-amine]",IC50,HBV core protein,< 5 µM
same,EC50,HBV,< 1 µM
"O=C(c1cc2c(C(F)F)cccc2[nH]1)N1CCc2nc(NCC3CCOC3)sc2C1 (stereo not shown) [Example 325, 5-[4-(difluoromethyl)-1H-indole-2-carbonyl]-N-[(oxolan-3-yl)methyl]-4H,5H,6H,7H-[1,3]thiazolo[5,4-c]pyridin-2-amine]",IC50,HBV core protein,< 5 µM
same,EC50,HBV,< 1 µM
"O=C(c1cc2c(C(F)F)cc(F)cc2[nH]1)N1CCc2nc(NCC3CCOC3)sc2C1 (stereo not shown) [Example 326, 5-[4-(difluoromethyl)-6-fluoro-1H-indole-2-carbonyl]-N-[(oxolan-3-yl)methyl]-4H,5H,6H,7H-[1,3]thiazolo[5,4-c]pyridin-2-amine]",IC50,HBV core protein,< 5 µM
same,EC50,HBV,< 1 µM
"CC(F)(F)c1cc(F)cc2[nH]c(C(=O)N3CCc4nc(NCC5CCOC5)sc4C3)cc12 (stereo not shown) [Example 327, 5-[4-(1,1-difluoroethyl)-6-fluoro-1H-indole-2-carbonyl]-N-[(oxolan-3-yl)methyl]-4H,5H,6H,7H-[1,3]thiazolo[5,4-c]pyridin-2-amine]",IC50,HBV core protein,< 5 µM
same,EC50,HBV,< 1 µM
"CCc1cc(F)cc2[nH]c(C(=O)N3CCc4nc(NC[C@@H]5CCOC5)sc4C3)cc12 [Example 328, 5-(4-ethyl-6-fluoro-1H-indole-2-carbonyl)-N-{[(3S)-oxolan-3-yl]methyl}-4H,5H,6H,7H-[1,3]thiazolo[5,4-c]pyridin-2-amine]",IC50,HBV core protein,< 5 µM
same,EC50,HBV,< 1 µM
"CCc1cc(F)cc2[nH]c(C(=O)N3CCc4nc(NC[C@H]5CCOC5)sc4C3)cc12 [Example 329, 5-(4-ethyl-6-fluoro-1H-indole-2-carbonyl)-N-{[(3R)-oxolan-3-yl]methyl}-4H,5H,6H,7H-[1,3]thiazolo[5,4-c]pyridin-2-amine]",IC50,HBV core protein,< 5 µM
same,EC50,HBV,< 1 µM
"COCC1(C(=O)Nc2nc3c(s2)CN(C(=O)c2cc4ccccc4[nH]2)CC3)CC1 [Example 330, N-[5-(1H-indole-2-carbonyl)-4H,5H,6H,7H-[1,3]thiazolo[5,4-c]pyridin-2-yl]-1-(methoxymethyl)cyclopropane-1-carboxamide]",IC50,HBV core protein,5 to 10 µM
same,EC50,HBV,< 1 µM
"O=C(c1cc2ccc(Cl)cc2[nH]1)N1CCc2nc(NCC3(O)CCC3)sc2C1 [Example 331, 1-({[5-(6-chloro-1H-indole-2-carbonyl)-4H,5H,6H,7H-[1,3]thiazolo[5,4-c]pyridin-2-yl]amino}methyl)cyclobutan-1-ol]",IC50,HBV core protein,5 to 10 µM
same,EC50,HBV,< 1 µM
"CCc1cccc2[nH]c(C(=O)N3CCc4nc(NC(=O)C5(C)CC5)sc4C3)cc12 [Example 333, N-[5-(4-ethyl-1H-indole-2-carbonyl)-4H,5H,6H,7H-[1,3]thiazolo[5,4-c]pyridin-2-yl]-1-methylcyclopropane-1-carboxamide]",IC50,HBV core protein,< 5 µM
same,EC50,HBV,< 1 µM
"CCc1cccc2[nH]c(C(=O)N3CCc4nc(NC(=O)C5CCOCC5)sc4C3)cc12 [Example 334, N-[5-(4-ethyl-1H-indole-2-carbonyl)-4H,5H,6H,7H-[1,3]thiazolo[5,4-c]pyridin-2-yl]oxane-4-carboxamide]",IC50,HBV core protein,< 5 µM
same,EC50,HBV,< 1 µM
"CCc1cccc2[nH]c(C(=O)N3CCc4nc(N[C@H]5CC[C@@H](O)CC5)sc4C3)cc12 [Example 335, (1s,4s)-4-{[5-(4-ethyl-1H-indole-2-carbonyl)-4H,5H,6H,7H-[1,3]thiazolo[5,4-c]pyridin-2-yl]amino}cyclohexan-1-ol]",IC50,HBV core protein,< 5 µM
same,EC50,HBV,< 1 µM
"N#CC1(C(=O)Nc2nc3c(s2)CN(C(=O)c2cc4ccccc4[nH]2)CC3)CC1 [Example 336, 1-cyano-N-[5-(1H-indole-2-carbonyl)-4H,5H,6H,7H-[1,3]thiazolo[5,4-c]pyridin-2-yl]cyclopropane-1-carboxamide]",IC50,HBV core protein,5 to 10 µM
same,EC50,HBV,< 1 µM
"CCc1cccc2[nH]c(C(=O)N3CCc4nc(NCC5(O)CCC5)sc4C3)cc12 [Example 338, 1-({[5-(4-ethyl-1H-indole-2-carbonyl)-4H,5H,6H,7H-[1,3]thiazolo[5,4-c]pyridin-2-yl]amino}methyl)cyclobutan-1-ol]",IC50,HBV core protein,< 5 µM
same,EC50,HBV,< 1 µM
"COCC1(CNc2nc3c(s2)CN(C(=O)c2cc4ccccc4[nH]2)CC3)CC1 [Example 340, 5-(1H-indole-2-carbonyl)-N-{[1-(methoxymethyl)cyclopropyl]methyl}-4H,5H,6H,7H-[1,3]thiazolo[5,4-c]pyridin-2-amine]",IC50,HBV core protein,< 5 µM
same,EC50,HBV,< 1 µM
